Test results: paper PMC4527344 (Tetrahedron letters, 2015)
Converted amounts (≈) assume the structure as drawn. Where two headings read alike, the source gives them in different places.

Columns and labels:
M. tuberculosis H37Rv [1] = format: cell-based, Mycobacterium tuberculosis
M. tuberculosis = test: metabolomics: intramycobacterial accumulation and metabolism; format: cell-based, Mycobacterium tuberculosis; conditions: dose-dependent
[2] = Middlebrook 7H9 media supplemented with albumin, dextrose, and saline
M. tuberculosis H37Rv [3] = conditions: cited from earlier work
[4] = target: enoyl acyl-carrier protein reductase (InhA); conditions: InhA enzymatic activity; cited from earlier work

With `CCOC(=O)CSc1nc(N)c2c3c(sc2n1)CC(C(C)(C)C)CC3` (stereo not drawn) [CD117] the MIC (M. tuberculosis H37Rv [1]) was 0.39 µg/mL (≈ 1.03 µM), the “permeation of the M. tuberculosis cell wall” value (M. tuberculosis) was “permeate the M. tuberculosis cell wall” and the “stability in growth media” value [2] was “stable”. The MIC (M. tuberculosis H37Rv [3]; M. tuberculosis H37Rv lab strain, previously reported) was 0.39 µg/mL, the MIC (M. tuberculosis H37Rv [3]; M. tuberculosis H37Rv, 0.39 μg/mL expressed in μM) was 1.0 µM and the IC50 [4] was 34 ± 6 µM.
